How the values were obtained:
[1] = test system: Fusarium nivale (var. majus); test: Fusarium nivale (var. majus) test (wheat)/protective; assay type: in vivo; details: protective, 500 g/ha, evaluation 4 days following inoculation
Procedure: (§1) To produce a suitable preparation of active compound, one part by weight of active compound is mixed with the stated amounts of solvent and emulsifier, and the concentrate is diluted with water to the desired concentration.
To test for protective activity, young plants are sprayed with the active compound preparation at the application rate indicated. After the spray coating has dried on, the plants are sprayed with a conidia suspension of Fusarium nivale (var. majus).
The plants are placed in a greenhouse under transparent incubation hoods at a temperature of about 15° C. and a relative humidity of about 100%.
Evaluation is made 4 days following inoculation. 0% denotes an efficacy corresponding to that of the control, whereas an efficacy of 100% means that no infestation is observed.

Venturia inaequalis = test: Venturia test (apple)/protective; assay type: in vivo; details: protective, 100 g/ha, evaluation 10 days following inoculation
Procedure: as §1
To test for protective activity, young plants are sprayed with the active compound preparation at the application rate indicated. After the spray coating has dried on, the plants are inoculated with an aqueous conidia suspension of the apple scab causative organism, Venturia inaequalis, and then remain in an incubation cabin for 1 day at about 20° C. and 100% relative humidity.
The plants are placed in a greenhouse at a temperature of about 15° C. and a relative humidity of about 90%.
Evaluation is made 10 days following inoculation. 0% denotes an efficacy corresponding to that of the control, whereas an efficacy of 100% means that no infestation is observed.

| Structure (SMILES) | Efficacy in % [1] [%] | other results |
| --- | --- | --- |
| CCN(N)c1c(-c2c(F)cc(F)cc2F)c(Cl)nc2ncnn12 [drawing 44] | 80 |  |
| CN(C)Nc1c(-c2c(F)cc(F)cc2F)c(Cl)nc2ncnn12 [drawing 46] |  | Efficacy in % (Venturia inaequalis): 94% |
| CCCN(N)c1c(-c2c(F)cc(F)cc2F)c(Cl)nc2ncnn12 [drawing 43] | 80 |  |
| CNN(C)c1c(-c2c(F)cc(F)cc2F)c(Cl)nc2ncnn12 [drawing 45] | 93 |  |
| CN(C)Nc1c(-c2c(F)cc(F)cc2F)c(Cl)nc2ncnn12 [Example 1, 5-chloro-7-(2,2-dimethylhydrazino)-6-(2,4,6-trifluorophenyl)[1,2,4]-triazolo[1,5-a]pyrimidine] |  | melting point: 165 to 168 °C |

— patent publication US7189680B2, “5-halo-6-aryl[1,2,4]triazolo[1,5-a]pyrimidin-7-amines” (Bayer Cropscience AG, priority 2001, dated 2007)
